{
  "source": "patent US20090111697A1",
  "about": "“PROPIONIC ACID AS AN HERBICIDE” (Marrone Organic Innovations, priority 2007, published 2009)",
  "key": {"[1]": {"experiment": "Solubility of hinokitiol in solvents", "type": "physicochemical", "conditions": "ambient conditions", "source_text": "The solubility of hinokitiol in proprionic acid was 60% w/w or 3 parts hinokitiol to 2 parts propionic acid by weight, under ambient conditions. Under the correct conditions the solubility of hinokitiol in propionic acid would exceed 3 parts hinokitiol to 2 parts propionic acid, by weight. Under ambient conditions, the maximum solubility of hinokitiol in ethanol is 50% w/w or 1 part hinokitiol to 1 part ethanol by weight."}, "[2]": {"tested_on": "Lactuca sativa (lettuce) seed", "experiment": "Germination of lettuce seeds in 96-well plate, dilution series", "type": "in vivo", "conditions": "11 days; for germination: 75 ul per well", "protocol": "The phytotoxic effects of propionic and formic acids were tested on germinating dicot seeds. A single seed of Lactuca sativa (lettuce) was placed in each well of a 96-well plate followed by a 75-ul aliquot of each solution in a stepwise (1:2) dilution series with DI water from 5% to 0%. DI water was used as a control. The plate was sealed with a plastic cover, and placed under greenhouse lights (12 hr light/dark cycle) for 11 days after which the germination at each concentration was recorded. See the results below."}, "[3]": {"tested_on": "Seedlings of Lactuca sativa (lettuce)", "experiment": "High-throughput 96-well post-emergence assay on lettuce seedlings", "type": "in vivo", "protocol": "A high-throughput 96-well assay was used to test the efficacy of propionic acid as a post-emergence, non-selective herbicide. Seedlings of Lactuca sativa (lettuce) were grown in water agar in 96-well plates under continuous light. Propionic acid was added on the seedlings at a 2×-dilution series from 20% to 0%, and the minimum concentration needed for killing the seedling was recorded the next day. According to the results, propionic acid at a concentration of 0.156% was able to kill the lettuce seedling, whereas propionic acid at a concentration of 0.08% was not harmful for the plant."}, "[4]": {"tested_on": "Lactuca sativa (lettuce) seeds", "experiment": "Pre-emergence pot test, propionic acid in corn gluten meal granules, lettuce", "type": "in vivo", "conditions": "one week", "protocol": "(§1) To further test the inhibitory effect of propionic acid on germinating seeds, pots with 6-cm diameter were filled with 60 mL of silty clay loam soil passed through a 2-mm sieve, and five (5) seeds of either Lactuca sativa (lettuce, representing a broadleaf plant) or Poa annua (annual bluegrass, representing a grass weed) were planted on the top. A solid form of the composition containing corn gluten meal granules (1-2 mm diameter) soaked in 0%, 10%, 15% or 20% propionic acid solution and dried were placed on the top of the soil at rates 0.1, 0.25, and 0.5 g/pot. The pots were kept at optimum water content under growth lights with a 12-h light/dark period at room temperature, and the number of germinated seeds was counted after one week. The results were reported as a percent of weed seeds germinated relative to the control treatment with no corn gluten meal added."}, "Poa annua": {"tested_on": "Poa annua", "experiment": "Post-emergence minimum concentration study in peat pots, 2-10%", "type": "in vivo", "conditions": "Poa annua in small peat pots, sprayed", "source_text": "To further test the minimum concentration of propionic acid required to control Poa annua (as an example of a grass weed) another study was set up in small peat pots using concentrations 0% (control), 2%, 4%, 6%, 8% and 10% of propionic acid. According to the results, a concentration of 8-10% is needed for good control."}, "[5]": {"tested_on": "Poa annua (annual bluegrass)", "experiment": "Post-emergence spray test on annual bluegrass, 0.5-20%", "type": "in vivo", "conditions": "2 mL spray, four days after treatment", "protocol": "Pots with 6-cm diameter were filled with potting mix, and about thirty (30) seeds of Poa annua (annual bluegrass, representing a grass weed) were planted on the top. The seeds were germinated and the plants grown at optimum water content under growth lights with a 12-h light/dark period at room temperature until they were about 3 inches tall. To test the post-emergence effect of propionic acid, the plants were sprayed with 2 mL of water solutions containing increasing concentrations of propionic acid. The following concentrations (v/v %) were used: 0% (control), 0.5% 2.5%, 5%, 10%, and 20%. the plants were observed four days after the treatment."}, "[6]": {"tested_on": "Poa annua (annual bluegrass) seeds", "experiment": "Pre-emergence pot test, propionic acid in corn gluten meal granules, annual bluegrass", "type": "in vivo", "conditions": "one week", "protocol": "as §1"}, "[7]": {"conditions": "granules soaked in 10% propionic acid, 0.1 g/pot"}, "[8]": {"conditions": "granules soaked in 10% propionic acid, 0.25 g/pot"}, "[9]": {"conditions": "granules soaked in 10% propionic acid, 0.5 g/pot"}, "[10]": {"conditions": "granules soaked in 15% propionic acid, 0.1 g/pot"}, "[11]": {"conditions": "granules soaked in 15% propionic acid, 0.25 g/pot"}, "[12]": {"conditions": "granules soaked in 15% propionic acid, 0.5 g/pot"}, "[13]": {"conditions": "granules soaked in 20% propionic acid, 0.1 g/pot"}, "[14]": {"conditions": "granules soaked in 20% propionic acid, 0.25 g/pot"}, "[15]": {"conditions": "granules soaked in 20% propionic acid, 0.5 g/pot"}},
  "data": [
    {"smiles": "CC(C)c1cccc(=O)c(O)c1", "note": "[hinokitiol]", "values": [
      {"measurement": "maximum solubility in ethanol", "setting": "[1]", "result": 50, "unit": "% w/w"},
      {"measurement": "solubility in propionic acid", "setting": "[1]", "result": 60, "unit": "% w/w"}
    ]},
    {"smiles": "O=CO", "note": "[Formic Acid, reference compound]", "values": [
      {"measurement": "germination", "setting": "[2]; 0.005% solution", "result": "+"},
      {"measurement": "germination", "setting": "[2]; 0.01% solution", "result": "+ and −"},
      {"measurement": "germination", "setting": "[2]; 0.02% solution", "result": "+ and −"},
      {"measurement": "germination", "setting": "[2]; 0.05% solution", "result": "− and +"},
      {"measurement": "germination", "setting": "[2]; 0.09% solution", "result": "−"},
      {"measurement": "germination", "setting": "[2]; 0.19% solution", "result": "−"},
      {"measurement": "germination", "setting": "[2]; 0.36% solution", "result": "−"},
      {"measurement": "germination", "setting": "[2]; 0.75% solution", "result": "−"},
      {"measurement": "germination", "setting": "[2]; 1.25% solution", "result": "−"},
      {"measurement": "germination", "setting": "[2]; 2.50% solution", "result": "−"},
      {"measurement": "germination", "setting": "[2]; 5.00% solution", "result": "−"}
    ]},
    {"smiles": "CCC(=O)O", "note": "[Propionic acid]", "values": [
      {"measurement": "effect on the seedling", "setting": "[3]; concentration of 0.08%, next day", "result": "not harmful"},
      {"measurement": "minimum concentration needed for killing the seedling", "setting": "[3]; lettuce seedlings, recorded the next day", "result": 0.156, "unit": "%"},
      {"measurement": "germination rate (%) relative to untreated control", "setting": "[4]; [7]", "result": 50, "unit": "%"},
      {"measurement": "germination rate (%) relative to untreated control", "setting": "[4]; [8]", "result": 75, "unit": "%"},
      {"measurement": "germination rate (%) relative to untreated control", "setting": "[4]; [9]", "result": 42, "unit": "%"},
      {"measurement": "germination rate (%) relative to untreated control", "setting": "[4]; [10]", "result": 83, "unit": "%"},
      {"measurement": "germination rate (%) relative to untreated control", "setting": "[4]; [11]", "result": 25, "unit": "%"},
      {"measurement": "germination rate (%) relative to untreated control", "setting": "[4]; [12]", "result": 42, "unit": "%"},
      {"measurement": "germination rate (%) relative to untreated control", "setting": "[4]; [13]", "result": 42, "unit": "%"},
      {"measurement": "germination rate (%) relative to untreated control", "setting": "[4]; [14]", "result": 67, "unit": "%"},
      {"measurement": "germination rate (%) relative to untreated control", "setting": "[4]; [15]", "result": 33, "unit": "%"},
      {"measurement": "concentration needed for good control", "setting": "Poa annua", "result": "8-10%"},
      {"measurement": "herbicidal effect, visual observations", "setting": "[5]; 0.5% (v/v) in water", "result": "no herbicidal effect"},
      {"measurement": "herbicidal effect, visual observations", "setting": "[5]; 10% (v/v) in water", "result": "symptoms of wilting, scorching and eventually, death"},
      {"measurement": "herbicidal effect, visual observations", "setting": "[5]; 20% (v/v) in water", "result": "symptoms of wilting, scorching and eventually, death"},
      {"measurement": "germination", "setting": "[2]; 0.005% solution", "result": "+"},
      {"measurement": "germination", "setting": "[2]; 0.01% solution", "result": "+"},
      {"measurement": "germination", "setting": "[2]; 0.02% solution", "result": "+ and −"},
      {"measurement": "germination", "setting": "[2]; 0.05% solution", "result": "− and +"},
      {"measurement": "germination", "setting": "[2]; 0.09% solution", "result": "−"},
      {"measurement": "germination", "setting": "[2]; 0.19% solution", "result": "−"},
      {"measurement": "germination", "setting": "[2]; 0.36% solution", "result": "−"},
      {"measurement": "germination", "setting": "[2]; 0.75% solution", "result": "−"},
      {"measurement": "germination", "setting": "[2]; 1.25% solution", "result": "−"},
      {"measurement": "germination", "setting": "[2]; 2.50% solution", "result": "−"},
      {"measurement": "germination", "setting": "[2]; 5.00% solution", "result": "−"},
      {"measurement": "threshold value for complete inhibition of seed germination", "setting": "[2]; lettuce seed", "result": 0.09, "unit": "%"},
      {"measurement": "germination rate (%) relative to untreated control", "setting": "[6]; [7]", "result": 37, "unit": "%"},
      {"measurement": "germination rate (%) relative to untreated control", "setting": "[6]; [8]", "result": 44, "unit": "%"},
      {"measurement": "germination rate (%) relative to untreated control", "setting": "[6]; [9]", "result": 22, "unit": "%"},
      {"measurement": "germination rate (%) relative to untreated control", "setting": "[6]; [10]", "result": 44, "unit": "%"},
      {"measurement": "germination rate (%) relative to untreated control", "setting": "[6]; [11]", "result": 52, "unit": "%"},
      {"measurement": "germination rate (%) relative to untreated control", "setting": "[6]; [12]", "result": 30, "unit": "%"},
      {"measurement": "germination rate (%) relative to untreated control", "setting": "[6]; [13]", "result": 44, "unit": "%"},
      {"measurement": "germination rate (%) relative to untreated control", "setting": "[6]; [14]", "result": 37, "unit": "%"},
      {"measurement": "germination rate (%) relative to untreated control", "setting": "[6]; [15]", "result": 96, "unit": "%"}
    ]}
  ]
}
